{"source": "paper PMC8781960", "about": "“Structural Basis of 2-Phenylamino-4-phenoxyquinoline Derivatives as Potent HIV-1 Non-Nucleoside Reverse Transcriptase Inhibitors” (Molecules, 2022)", "key": {"[1]": {"target": "T1, HIV-1 RT (Human immunodeficiency virus type 1 group M subtype B, UniProt P03366)", "T1 construct": "The reaction mixture consisted of template/primer complex, 2′-deoxy-nucleotide-5′-triphosphates (dNTPs), and RT enzyme in lysis buffer; purchased Roche Applied Science, Mannheim, Germany", "design": "method as in PMID 31698495", "conditions": "1 µM; previously reported values for 5a–5d; cited from earlier work"}, "[2]": {"system": "H69AR (lung cancer, multidrug resistant)", "test": "In vitro cytotoxicity (MTT)", "format": "cell-based, human", "conditions": "human, 48 h, 50 µg/mL", "protocol": "Background control wells contained the same volume as the complete culture medium. […] The reagent was dissolved in phosphate-buffered saline at 5 mg/mL and filtered to sterilize and remove the small amount of insoluble residue present in some batches of MTT. […] Subsequently, dimethyl sulfoxide (100 µL; Merck, Germany) was added to dissolve the resulting formazan by sonication. The plates were read on a microplate reader (Molecular Devices, CA, USA) using a test wavelength of 550 nm and a reference wavelength of 650 nm."}, "[3]": {"system": "MDA-MB-231 (hormone-independent breast cancer)", "test": "In vitro cytotoxicity (MTT)", "conditions": "Homo sapiens, MDA-MB-231, 48 h, read-out: IC50 MDA-MB-231", "in_short": "(§1)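 48 h compound exposure, graded concentrations; MTT viability read-out (MTT stock 5 mg/mL in PBS, filter-sterilised); formazan solubilised in DMSO by sonication; A550, ref. 650 nm.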"}, "[4]": {"system": "HuCCA-1 (cholangiocarcinoma)", "test": "In vitro cytotoxicity (MTT)", "conditions": "Homo sapiens, HuCC-A1, 48 h, read-out: IC50 HuCCA-1", "in_short": "as §1"}, "[5]": {"system": "A549 (lung carcinoma)", "test": "In vitro cytotoxicity (MTT)", "conditions": "Homo sapiens, A549, 48 h, read-out: IC50 A549", "in_short": "as §1"}, "[6]": {"system": "HL-60 (promyeloblast)", "test": "In vitro cytotoxicity (MTT)", "conditions": "Homo sapiens, HL-60, 48 h, read-out: IC50 HL-60", "in_short": "as §1"}, "[7]": {"system": "T47-D (hormone-dependent breast cancer)", "test": "In vitro cytotoxicity (MTT)", "conditions": "Homo sapiens, T47D, 48 h, read-out: IC50 T47-D", "in_short": "as §1"}, "[8]": {"system": "S102 (Thai liver cancer)", "test": "In vitro cytotoxicity (MTT)", "conditions": "at 50 µg/mL; inactive (IC50 ≥ 50 µg/mL)", "in_short": "as §1"}, "[9]": {"system": "HepG2 (hepatocarcinoma)", "test": "In vitro cytotoxicity (MTT)", "conditions": "Homo sapiens, HepG2, 48 h, read-out: IC50 HepG2", "in_short": "as §1"}, "[10]": {"system": "HeLA (cervical carcinoma)", "test": "In vitro cytotoxicity (MTT)", "conditions": "Homo sapiens, HeLa, 48 h, read-out: IC50 HeLA", "in_short": "as §1"}, "[11]": {"system": "MRC-5 (normal embryonic lung cell)", "test": "In vitro cytotoxicity (MTT), normal cell line", "conditions": "Homo sapiens, MRC5, 48 h, read-out: IC50 MRC-5", "in_short": "as §1"}, "[12]": {"system": "MOLT-3 (acute lymphoblastic leukemia)", "test": "In vitro cytotoxicity (XTT)", "conditions": "Homo sapiens, MOLT-3, 48 h, read-out: IC50 MOLT-3"}}, "note": "Marks after values point to notes of the source that are not given here.", "data": [{"compound": "N#Cc1ccc(Nc2cc(Oc3ccc(C=O)cc3)c3ccccc3n2)cc1", "note": "[Compound 5a, 4-(4′-formylphenoxy)-2-(4″-cyanophenyl)-aminoquinoline]", "values": [{"measurement": "melting point", "value": "267.1 to 268", "unit": "°C"}, {"measurement": "Inhibitory activities (%) against HIV-1 RT", "setting": "[1]", "value": "19.4 ± 1.7", "unit": "%"}, {"measurement": "%C percentage cytotoxicity H69AR", "setting": "[2]", "value": "%C = 38.0 ^c"}, {"measurement": "IC50", "setting": "[3]", "value": "77.7 ± 5.9", "unit": "µM"}, {"measurement": "IC50", "setting": "[4]", "value": "29.7 ± 2", "unit": "µM"}, {"measurement": "IC50", "setting": "[5]", "value": "122 ± 4.5", "unit": "µM"}, {"measurement": "IC50", "setting": "[6]", "value": "16.6 ± 4.7", "unit": "µM"}, {"measurement": "IC50", "setting": "[7]", "value": "43 ± 5.3", "unit": "µM"}, {"measurement": "%C percentage cytotoxicity S102", "setting": "[8]", "value": "%C = 20.9 ^c"}, {"measurement": "IC50", "setting": "[9]", "value": "73.2 ± 7.7", "unit": "µM"}, {"measurement": "IC50", "setting": "[10]", "value": "12.6 ± 1.3", "unit": "µM"}, {"measurement": "IC50", "setting": "[11]", "value": "108 ± 4.7", "unit": "µM"}, {"measurement": "IC50", "setting": "[12]", "value": "15.6 ± 3.6", "unit": "µM"}]}]}
